Source: US20250186423A1, “METHODS OF TREATING CANCER AND OTHER CONDITIONS WITH A MU OPIOID RECEPTOR ANTAGONIST” (priority 2022, published 2025)

Experiments:
[1] = tested on: M-001 melanoma cells; experiment: Melanoma tumor progression in Zebra fish larvae; type: in vivo, zebrafish; conditions: for Melanoma tumor progression index (tumor size × metastasis), Mean: 72 hours of growth
Method: Zebra fish larvae (FIG. 3A) allow direct visualization of injected tumor cell growth and metastasis (collectively tumor progression) using fluorescently label tumor cells. At this developmental stage both the zebra fish immune system and gut microbiome are immature or lacking. Co-injection of exogenous tumor infiltrating lymphocytes (ex-TILS) allows the separate study of immune surveillance in the absence of a microbiome.
(§1) The toxicity screening period covered the first 72 hours of development. The efficacy evaluation of Axelopran was made using M-001 melanoma cells and matching TILs. Two-day old zebrafish embryos were subcutaneously injected into the perivitelline space with approximately 700 M-001 cells labelled with Dil red fluorescent dye and intravenously injected with TILs with or without pembrolizumab antibody. At the same time, MOR-antagonist test doses were added to the water. Following an additional 72 hours of further development, the fish were assayed for tumor growth (size of original tumor implant) and metastasis disseminated to the distal caudal venous plexus (CVP) three days after implantation.
The testing described above was repeated studying the effects of various doses of axelopran (0, 50 nM, 100 nM, 500 nM, and 1000 nM) alone, pembrolizumab alone, or pembrolizumab in combination with axelopran. The results of this testing are shown in FIG. 7, which depicts a summary of melanoma tumor progression (tumor size×#metastasis) in the presence of increasing axelopran concentrations or the checkpoint inhibitor pembrolizumab. For experiments using pembrolizumab, exogenous tumor-infiltrating lymphocytes (TILs) were also injected. The additional controls included the effect of TILs alone and with axelopran (500 nM) and pembrolizumab and TILs alone and with axelopran (500 nM). *=<0.05, **=<0.005, ***=<0.0005.

[2] = tested on: Zebra fish larvae; experiment: Zebra fish larvae toxicity screen; type: in vivo, zebrafish; conditions: doses up to 100 μM in incubation water
Method: Transgenic Tg(fli1: EGFP)y1 zebrafish embryos were used for these studies. The results of this testing are shown in FIG. 4A and FIG. 4B, which show Zebra fish larvae survival up to 72 hours in the presence of increasing axelopran concentration in the incubation water.
Based on the toxicity screening, for tumor progression analysis, doses up to 10 μM were utilized.
as §1

[3] = tested on: Zebra fish larvae; experiment: Zebra fish larvae mortality in combination therapy study; type: in vivo, zebrafish
Method: as §1
For study investigating combination therapy, the Zebra fish larvae mortality was also investigated.

[4] = tested on: Mouse colon cancer (MC38) cells; experiment: Syngeneic mouse colon cancer model; type: in vivo, mice (C57BL6)
Method: The syngeneic mouse model assay (FIG. 3B) allows a complete system where tumor progression is quantified in the presence of endogenous immune surveillance and an active gut microbiome.
Mouse colon cancer (MC38) cells were amplified in vitro prior to implantation. On the day of injection, cells were harvested, counted including a trypan blue viability dye (cut-off 80%), and resuspended in PBS at the appropriate concentration. The cells were injected subcutaneously in the right flank of Female mice (C57BL6), 5 weeks of age (18-22 gm body weight) at 5.106 cells/mouse in 200 μL PBS within 30 minutes after harvesting. After 15-18 days of tumor growth, mice were randomized into treatment groups at 10 animals/group. Animals were weighed thrice weekly and tumor growth measured using callipers. The tumour volume (TV) was extrapolated to a sphere using the formula shown below: […]
by calculating the mean radius from the two measurements.
The results of these studies are shown in FIG. 12A, 12B, 13 as well as Table 2-3. The tumor growth curves in animals treated with the MOR antagonist, axelopran, mouse anti-PD-1 or a combination of both treatments are shown in FIGS. 12A and 12B. FIG. 12A and FIG. 12B show MC38 colon cancer tumor growth in syngeneic mice treated with Vehicle (Control), axelopran (1 mg/kg, p.o. daily), mouse anti-PD-1 (12.5 mg/kg i.p.,3×-weekly) or axelopran plus anti-PD-1.

[5] = absence of exogenous opioids, melanoma

## NC(=O)c1cccc(C2CC3CCC(C2)N3CCN(CC2CCCCC2)C(=O)[C@@H](O)CO)c1 (stereo partly drawn) [axelopran, 3-[(1R,3r,5S)-8-(2-{(cyclohexylmethyl)[(2S)-2,3-dihydroxypropanoyl]amino}ethyl)-8-azabicyclo[3.2.1]octan-3-yl]benzamide]
[1]; 10 μM axelopran vs vehicle control
  metastasis: significantly reduced metastasis
[1]; Axelopran 100 nM
  Melanoma tumor progression index (tumor size × metastasis), Mean: 5.71
[1]; Axelopran 500 nM +TILS
  Melanoma tumor progression index (tumor size × metastasis), Mean: 2.73
[1]; Axelopran 500 nM
  Melanoma tumor progression index (tumor size × metastasis), Mean: 3.62
[1]; Axelopran 1000 nM
  Melanoma tumor progression index (tumor size × metastasis), Mean: 1.85
[1]; absence of a microbiome, melanoma
  interaction of axelopran activity with anti-PD-1 treatment: additive
[1]; [5]
  metastasis: inhibits metastasis
  tumor growth: inhibits tumor growth
[2]
  abnormal pathology: limited abnormal pathology
  larvae death: did not result in larvae death
[2]; up to 72 hours
  survival and development of pathological lesions: no different that the vehicle control
[3]; axelopran added with TILS and TILS plus pembrolizumab
  Zebra fish larvae mortality: significantly reduced this mortality
[3]; axelopran alone, 72-hour period after exposure at 48 hours post-fertilization
  Zebra fish larvae mortality: no significant mortality
[4]; axelopran 1 mg/kg p.o. daily, mouse anti-PD-1 12.5 mg/kg i.p. 3×-weekly
  Tumor Size @ day 13, Mean: 1,479 mm^3
[4]; axelopran 1 mg/kg, anti-PD-1
  Survival, Median: 13.0 days
[4]; initial 8 days of treatments, axelopran 1 mg/kg p.o. daily, mouse anti-PD-1 12.5 mg/kg i.p.
  Growth Rate, Mean: 84.5 mm^3/day
[4]; presence of a microbiome, colon cancer
  interaction of axelopran activity with anti-PD-1 treatment: synergistic
